Experimental data taken from patent US20250092084A1, “C7, C12, AND C16 SUBSTITUTED NEUROACTIVE STEROIDS AND THEIR METHODS OF USE” (Sage Therapeutics, Inc., priority 2016, published 2025).

Target: rat brain cortical membranes (GABA receptor complex, [35S]-TBPS binding)
Assay: Steroid inhibition of [35S]-TBPS binding
Conditions: 3 nM [35S]-TBPS, in the presence of 5 mM GABA
Experimental: [^35S]-t-Butylbicyclophosphorothionate (TBPS) binding assays using rat brain cortical membranes in the presence of 5 mM GABA has been described (Gee et al, J Pharmacol. Exp. Ther. 1987, 241, 346-353; Hawkinson et al, Mol. Pharmacol. 1994, 46, 977-985; Lewin, A. H et al., Mol. Pharmacol. 1989, 35, 189-194).
Briefly, cortices are rapidly removed following decapitation of carbon dioxide-anesthetized Sprague-Dawley rats (200-250 g). The cortices are homogenized in 10 volumes of ice-cold 0.32 M sucrose using a glass/teflon homogenizer and centrifuged at 1500×g for 10 min at 4° C. The resultant supernatants are centrifuged at 10,000×g for 20 min at 4° C. to obtain the P2 pellets. The P2 pellets are resuspended in 200 mM NaCl/50 mM Na—K phosphate pH 7.4 buffer and centrifuged at 10,000×g for 10 min at 4° C. This washing procedure is repeated twice and the pellets are resuspended in 10 volumes of buffer. Aliquots ([…]) of the membrane suspensions are incubated with 3 nM [^35S]-TBPS and […] aliquots of test drug dissolved in dimethyl sulfoxide (DMSO) (final 0.5%) in the presence of 5 mM GABA. The incubation is brought to a final volume of 1.0 mL with buffer. Nonspecific binding is determined in the presence of […] and ranged from 15 to 25%. Following a 90 min incubation at room temp, the assays are terminated by filtration through glass fiber filters (Schleicher and Schuell No. 32) using a cell harvester (Brandel) and rinsed three times with ice-cold buffer. Filter bound radioactivity is measured by liquid scintillation spectrometry. Non-linear curve fitting of the overall data for each drug averaged for each concentration is done using Prism (GraphPad). […] The concentration of test compound producing 50% inhibition (IC50) of specific binding and the maximal extent of inhibition (Imax) are determined for the individual experiments with the same model used for the overall data and then the means±SEMs of the individual experiments are calculated.
Various compounds are or can be screened to determine their potential as modulators of [^35S]-TBPS binding in vitro. These assays are or can be performed in accordance with the above discussed procedures.

Structure (SMILES) | IC50 [nM]
C[C@@]1(O)CC[C@@]2(C)[C@@H](CC[C@@H]3[C@@H]2C[C@@H](O)[C@]2(C)[C@@H](C(=O)Cn4cc(C#N)cn4)CC[C@@H]32)C1 [Compound 47] | ≥ 500
C[C@@]1(O)CC[C@@]2(C)[C@@H](CC[C@@H]3[C@@H]2CC(=O)[C@]2(C)[C@@H](C(=O)Cn4cc(C#N)cn4)CC[C@@H]32)C1 [Compound 48] | ≥ 500
C[C@@]1(O)CC[C@@]2(C)[C@@H](CC[C@@H]3[C@@H]2C[C@@H](O)[C@]2(C)[C@@H](C(=O)Cn4cc5ccncc5n4)CC[C@@H]32)C1 [Compound 49] | 100 to 500
C[C@@]1(O)CC[C@@]2(C)[C@@H](CC[C@@H]3[C@@H]2C[C@@H](O)[C@]2(C)[C@@H](C(=O)Cn4ncc5ccncc54)CC[C@@H]32)C1 [Compound 50] | ≥ 500
CO[C@H]1C[C@H]2[C@@H](CC[C@H]3C[C@](C)(O)CC[C@@]32C)[C@@H]2CC[C@@H](C(C)=O)[C@@]12C [Compound 51] | ≥ 500
CO[C@H]1C[C@H]2[C@@H](CC[C@H]3C[C@](C)(O)CC[C@@]32C)[C@@H]2CC[C@H](C(C)=O)[C@@]12C [Compound 52] | ≥ 500
CO[C@H]1C[C@H]2[C@@H](CC[C@H]3C[C@](C)(O)CC[C@@]32C)[C@@H]2CC[C@H](C(=O)Cn3cc(C#N)cn3)[C@@]12C [Compound 53] | ≥ 500
CO[C@H]1C[C@H]2[C@@H](CC[C@H]3C[C@](C)(O)CC[C@@]32C)[C@@H]2CC[C@H](C(=O)Cn3cc4ccncc4n3)[C@@]12C [Compound 54] | ≥ 500
CO[C@H]1C[C@H]2[C@@H](CC[C@H]3C[C@](C)(O)CC[C@@]32C)[C@@H]2CC[C@H](C(=O)Cn3ncc4ccncc43)[C@@]12C [Compound 55] | ≥ 500
CO[C@@H]1C[C@H]2[C@@H](CC[C@@H]3C[C@](C)(O)CC[C@@H]32)[C@@H]2CC[C@H](C(C)=O)[C@@]12C [Compound 56] | 50 to 100
CO[C@@H]1C[C@H]2[C@@H](CC[C@@H]3C[C@](C)(O)CC[C@@H]32)[C@@H]2CC[C@H](C(=O)Cn3nnnc3C)[C@@]12C [Compound 59] | 100 to 500
CO[C@@H]1C[C@H]2[C@@H](CC[C@H]3C[C@](C)(O)CC[C@@]32C)[C@@H]2CC[C@H](C(=O)Cn3nnnc3C)[C@@]12C [Compound 61] | 100 to 500
CO[C@@H]1C[C@H]2[C@@H](CC[C@H]3C[C@](C)(O)CC[C@@]32C)[C@@H]2CC[C@H](C(=O)Cn3cc4ccncc4n3)[C@@]12C [Compound 62] | 10 to 50
CO[C@@H]1C[C@H]2[C@@H](CC[C@H]3C[C@](C)(O)CC[C@@]32C)[C@@H]2CC[C@H](C(=O)Cn3ncc4ccncc43)[C@@]12C [Compound 63] | 100 to 500
CC(=O)[C@H]1[C@H](C)C[C@H]2[C@@H]3CC[C@H]4C[C@](C)(O)CC[C@]4(C)[C@H]3CC[C@@]21C [Compound 64] | 100 to 500
CC[C@@H]1C[C@H]2[C@@H]3CC[C@H]4C[C@](C)(O)CC[C@]4(C)[C@H]3CC[C@]2(C)[C@H]1C(C)=O [Compound 65] | ≥ 500

Structure (SMILES) | IC50 [nM]
C[C@@H]1C[C@H]2[C@@H]3CC[C@H]4C[C@](C)(O)CC[C@]4(C)[C@H]3CC[C@]2(C)[C@H]1C(=O)Cn1cc(C#N)cn1 [Compound 66] | 10 to 50
COc1ccc2nn(CC(=O)[C@H]3[C@H](C)C[C@H]4[C@@H]5CC[C@H]6C[C@](C)(O)CC[C@]6(C)[C@H]5CC[C@@]43C)nc2c1 [Compound 67] | 10 to 50
COc1ccc2nnn(CC(=O)[C@H]3[C@H](C)C[C@H]4[C@@H]5CC[C@H]6C[C@](C)(O)CC[C@]6(C)[C@H]5CC[C@@]43C)c2c1 [Compound 68] | 10 to 50
COc1ccc2c(c1)nnn2CC(=O)[C@H]1[C@H](C)C[C@H]2[C@@H]3CC[C@H]4C[C@](C)(O)CC[C@]4(C)[C@H]3CC[C@@]21C [Compound 69] | 10 to 50
CC[C@@H]1C[C@H]2[C@@H]3CC[C@H]4C[C@](C)(O)CC[C@]4(C)[C@H]3CC[C@]2(C)[C@H]1C(=O)Cn1nc2ccc(OC)cc2n1 [Compound 70] | ≥ 500
CC[C@@H]1C[C@H]2[C@@H]3CC[C@H]4C[C@](C)(O)CC[C@]4(C)[C@H]3CC[C@]2(C)[C@H]1C(=O)Cn1nnc2ccc(OC)cc21 [Compound 71] | ≥ 500
CC[C@@H]1C[C@H]2[C@@H]3CC[C@H]4C[C@](C)(O)CC[C@]4(C)[C@H]3CC[C@]2(C)[C@H]1C(=O)Cn1nnc2cc(OC)ccc21 [Compound 72] | ≥ 500
CC(=O)[C@H]1[C@H](C(C)C)C[C@H]2[C@@H]3CC[C@H]4C[C@](C)(O)CC[C@]4(C)[C@H]3CC[C@@]21C [Compound 73] | ≥ 500
CC[C@@H]1C[C@H]2[C@@H]3CC[C@H]4C[C@](C)(O)CC[C@]4(C)[C@H]3CC[C@]2(C)[C@H]1C(=O)Cn1cc(C#N)cn1 [Compound 74] | ≥ 500
CC(C)[C@@H]1C[C@H]2[C@@H]3CC[C@H]4C[C@](C)(O)CC[C@]4(C)[C@H]3CC[C@]2(C)[C@H]1C(=O)Cn1ncc2ccncc21 [Compound 75] | ≥ 500
CC(C)[C@@H]1C[C@H]2[C@@H]3CC[C@H]4C[C@](C)(O)CC[C@]4(C)[C@H]3CC[C@]2(C)[C@H]1C(=O)Cn1cc2ccncc2n1 [Compound 76] | ≥ 500
COc1ccc2nn(CC(=O)[C@H]3[C@H](C(C)C)C[C@H]4[C@@H]5CC[C@H]6C[C@](C)(O)CC[C@]6(C)[C@H]5CC[C@@]43C)nc2c1 [Compound 77] | ≥ 500
CC(C)[C@@H]1C[C@H]2[C@@H]3CC[C@H]4C[C@](C)(O)CC[C@]4(C)[C@H]3CC[C@]2(C)[C@H]1C(=O)Cn1cc(C#N)cn1 [Compound 88] | ≥ 500
Cc1nnn(CC(=O)[C@H]2[C@H](C)C[C@H]3[C@@H]4CC[C@H]5C[C@](C)(O)CC[C@]5(C)[C@H]4CC[C@@]32C)n1 [Compound 89] | 10 to 50
Cc1nnnn1CC(=O)[C@H]1[C@H](C)C[C@H]2[C@@H]3CC[C@H]4C[C@](C)(O)CC[C@]4(C)[C@H]3CC[C@@]21C [Compound 90] | 100 to 500
